# From patent US20220235073A1, “ARTEMISININ-DERIVATIVE N-HETEROCYCLIC CARBENE GOLD(I) HYBRID COMPLEXES” (CENTRE NATIONAL DE LA RECHERCHE SCIENTIFIQUE, priority 2019, published 2022)
# Tests used:
# [1] = tested on: Nrf2; assay: NRF2 transcriptional activity, ARE Reporter Hep G2 cell line; format: cell-based, human; details: ARE Reporter Hep G2 cells, 16 hours, any dose
# Method: The ARE Reporter Hep G2 cell line containing a firefly luciferase gene under the control of ARE stably integrated into Hep G2 cells was used to quantify NRF2 transcriptional activity after 16 hours of treatment with the indicated doses of the different complexes. The results are shown as fold induction of ARE luciferase reporter expression. Dashed line indicates a fold induction of 1 (values >1 mean activation and values <1 mean inhibition).
# ARE-reporter-HepG-2 cells were harvested from culture in Growth Medium 1K and they were seeded at a concentration of 40,000 cells/well into white clear-bottom 96-well microplate in 45 μL of Growth Medium 1K without Geneticin. Cells were allowed to attach overnight and then treated with different concentrations of complex 2a (from 0.01 μM to 20 μM), auranofin (from 0.01 μM to 20 μM) or DHA (from 0.01 μM to 3, 5, 10, 20 and 50 μM), and complex (from 0.01 μM to 20 μM). After incubation at 37° C. and 5% CO2 for 16 hours, ONE-Step luciferase assay reagent (100 μL) was added and rock at room temperature for over 15 minutes. Then the luminescence of each well was determined by CLARIOstar microplate reader to quantify induction of ARE. Three independent experiments were performed as biological triplicates. The results are in FIG. 4.
# [2] = tested on: RWPE-1 human prostate normal cells; assay: Cell viability MTT assay, RWPE-1; format: cell-based; details: for GI50: 72 h, MTT assay; for Selectivity index RWPE-1: SI = GI50 (RWPE-1)/GI50 (PC-3)
# Method: (§1) HepG-2 human liver cancer cells were cultured in EMEM containing 10% of FBS, 1% of nonessential amino acids, 1 mM of Na-pyruvate, 1% of PenStrep antibiotics and 600 μg/mL of Geneticin. A549 human lung carcinoma cells, T24 human bladder carcinoma cells, MCF-7 human breast adenocarcinoma cells, U-2OS human osteosarcoma and NIH3T3 murine fibroblast cells were cultured in DMEM medium containing 10% fetal bovine serum and 1% antibiotics at 37° C. in 5% CO2 humidified incubators. MC3T3 mouse osteoblast cells were cultured in MEM medium containing 10% fetal bovine serum and 1% antibiotics at 37° C. in 5% CO2 humidified incubators. RWPE-1 human prostate normal cells were cultured in K-SFM medium containing 0.05 mg/ml bovine pituitary extract (BPE) and 5 ng/ml epidermal growth factor (EGF) at 37° C. in 5% CO2 humidified incubators. The MTT reagent (3-(4,5-dimethylthiazol-2-yl)-2,5-diphenyltetrazolium bromide) was used to determine cell death as originally described by Mosmaneland modified by Cuvillier et al.^[6] Briefly, cells were seeded 5,000 to 10,000 cells/well in 24-well plates depending on the cell type and allowed to attach overnight. All of the complexes were dissolved in DMSO. The concentration of the complexes was calculated according to the elemental composition of the complexes determined by the elemental analyses. Media in the presence of the tested complexes were added and serially diluted to various concentrations (from 5 μM to 0.01 μM). Next to these concentrations, for DHA 50, 20 and 10 μM and for the cationic bisNHC gold(I) complex 3 0.001 μM have been used. […] After 72 h of treatment, cells were incubated at 37° C. and 5% CO2 with 25 μL MTT solution (5 mg/mL; Sigma-Aldrich) in 24-well plates for approximately 3 to 4 h. After solubilization with 500 μL of lysis buffer (DMSO), formazan was quantified by spectrophotometry with a microplate reader at 570 nm absorbance. […] All the results were calculated from data obtained in three independent experiments.
# [3] = tested on: NIH3T3 murine fibroblast cells; assay: Cell viability MTT assay, NIH3T3; format: cell-based; details: for GI50: 72 h, MTT assay; for Selectivity index NIH3T3: SI = GI50 (non-cancer cell line NIH3T3)/GI50 (cancer cell line PC-3)
# Method: as §1
# [4] = tested on: PC-3 human prostate cancer cells; assay: Cell viability MTT assay, PC-3; format: cell-based; details: for GI50: 72 h, MTT assay
# [5] = tested on: U-2OS human osteosarcoma; assay: Cell viability MTT assay, U-2OS; format: cell-based
# Method: (§2) PC-3 human prostate cancer cells, and LAMA chronic myeloid leukemia were cultured in RPMI 1640 containing 10% fetal bovine serum and 1% antibiotics (100 U/mL penicillin and 100 μg/mL streotimycin) at 37° C. in 5% CO2 humidified incubators. HL60 […] were cultured in RPMI 1640 containing 15% fetal bovine serum and 1% antibiotics (100 U/mL penicillin and 100 μg/mL streotimycin) at 37° C. in 5% CO2 humidified incubators. HepG-2 human liver cancer cells were cultured in EMEM containing 10% of FBS, 1% of nonessential amino acids, 1 mM of Na-pyruvate, 1% of PenStrep antibiotics and 600 μg/mL of Geneticin. A549 human lung carcinoma cells, T24 human bladder carcinoma cells, MCF-7 human breast adenocarcinoma cells, U-2OS human osteosarcoma and NIH3T3 murine fibroblast cells were cultured in DMEM medium containing 10% fetal bovine serum and 1% antibiotics at 37° C. in 5% CO2 humidified incubators. MC3T3 mouse osteoblast cells were cultured in MEM medium containing 10% fetal bovine serum and 1% antibiotics at 37° C. in 5% CO2 humidified incubators. RWPE-1 human prostate normal cells were cultured in K-SFM medium containing 0.05 mg/ml bovine pituitary extract (BPE) and 5 ng/ml epidermal growth factor (EGF) at 37° C. in 5% CO2 humidified incubators. The MTT reagent (3-(4,5-dimethylthiazol-2-yl)-2,5-diphenyltetrazolium bromide) was used to determine cell death as originally described by Mosmaneland modified by Cuvillier et al.^[6] Briefly, cells were seeded 5,000 to 10,000 cells/well in 24-well plates depending on the cell type and allowed to attach overnight. All of the complexes were dissolved in DMSO. The concentration of the complexes was calculated according to the elemental composition of the complexes determined by the elemental analyses. Media in the presence of the tested complexes were added and serially diluted to various concentrations (from 5 μM to 0.01 μM). Next to these concentrations, for DHA 50, 20 and 10 μM and for the cationic bisNHC gold(I) complex 3 0.001 μM have been used. […] After 72 h of treatment, cells were incubated at 37° C. and 5% CO2 with 25 μL MTT solution (5 mg/mL; Sigma-Aldrich) in 24-well plates for approximately 3 to 4 h. After solubilization with 500 μL of lysis buffer (DMSO), formazan was quantified by spectrophotometry with a microplate reader at 570 nm absorbance. The GI50 values corresponding to the concentration that caused 50% inhibition of cell proliferation were calculated from dose-response curves obtained by nonlinear regression analysis (Prism 8, Graphpad Software). All the results were calculated from data obtained in three independent experiments.
# [6] = tested on: A549 human lung carcinoma cells; assay: Cell viability MTT assay, A549; format: cell-based
# Method: as §2
# [7] = tested on: T24 human bladder carcinoma cells; assay: Cell viability MTT assay, T24; format: cell-based
# Method: as §2
# [8] = tested on: NF-κB transcription factor induced by TNFalpha; assay: NF-kB transcriptional activity, NF-kB Reporter (Luc)-A549 stable cell line; format: cell-based, human; details: NF-kB Reporter A549 cells, 1 ng/ml TNFα, 7 hours; read-out: IC50, inhibition of NF-κB transcription factor induced by TNFalpha
# Method: The NF-kB Reporter (Luc)—A549 Stable Cell Line was used to quantify the inhibitory effects of the indicated doses of the molecules of the invention on transcriptional activity of NF-kB activated by 1 ng/ml TNFα (7 hours of treatment).
# Luminescence was read using a luminometer and readings were normalized to wells that only contain media to obtain the Relative Luminescence Units (RLUs).
# 9. NF-kB Transcriptional Activity
# [9] = tested on: MC3T3 mouse osteoblast cells; assay: Cell viability MTT assay, MC3T3; format: cell-based
# Method: as §2
# [10] = tested on: LAMA chronic myeloid leukemia; assay: Cell viability MTT assay, LAMA; format: cell-based, human
# Method: as §2
# [11] = tested on: Non tumoral cell models (MC3-T3, NIH3T3, RWPE1); assay: MTT assay, mean over non tumoral cell models; format: cell-based; details: mean of MC3-T3, NIH3T3, RWPE1
# Method: (§3) PC-3 human prostate cancer cells, and LAMA chronic myeloid leukemia were cultured in RPMI 1640 containing 10% fetal bovine serum and 1% antibiotics (100 U/mL penicillin and 100 μg/mL streotimycin) at 37° C. in 5% CO2 humidified incubators. HL60 […] were cultured in RPMI 1640 containing 15% fetal bovine serum and 1% antibiotics (100 U/mL penicillin and 100 μg/mL streotimycin) at 37° C. in 5% CO2 humidified incubators. HepG-2 human liver cancer cells were cultured in EMEM containing 10% of FBS, 1% of nonessential amino acids, 1 mM of Na-pyruvate, 1% of PenStrep antibiotics and 600 μg/mL of Geneticin. A549 human lung carcinoma cells, T24 human bladder carcinoma cells, MCF-7 human breast adenocarcinoma cells, U-2OS human osteosarcoma and NIH3T3 murine fibroblast cells were cultured in DMEM medium containing 10% fetal bovine serum and 1% antibiotics at 37° C. in 5% CO2 humidified incubators. MC3T3 mouse osteoblast cells were cultured in MEM medium containing 10% fetal bovine serum and 1% antibiotics at 37° C. in 5% CO2 humidified incubators. RWPE-1 human prostate normal cells were cultured in K-SFM medium containing 0.05 mg/ml bovine pituitary extract (BPE) and 5 ng/ml epidermal growth factor (EGF) at 37° C. in 5% CO2 humidified incubators. The MTT reagent (3-(4,5-dimethylthiazol-2-yl)-2,5-diphenyltetrazolium bromide) was used to determine cell death as originally described by Mosmaneland modified by Cuvillier et al.^[6] Briefly, cells were seeded 5,000 to 10,000 cells/well in 24-well plates depending on the cell type and allowed to attach overnight. All of the complexes were dissolved in DMSO. The concentration of the complexes was calculated according to the elemental composition of the complexes determined by the elemental analyses. […] After solubilization with 500 μL of lysis buffer (DMSO), formazan was quantified by spectrophotometry with a microplate reader at 570 nm absorbance. […] All the results were calculated from data obtained in three independent experiments.
# [12] = tested on: Tumor cell models; assay: MTT assay, panel of tumor cell models; format: cell-based, human; details: mean of PC-3, A549, U2OS, T24, MCF-7, LAMA, HL60
# Method: as §3
# [13] = tested on: MCF-7 human breast adenocarcinoma cells; assay: Cell viability MTT assay, MCF-7; format: cell-based
# Method: as §2
# [14] = tested on: HepG-2 human liver cancer cells; assay: Cell viability MTT assay, HepG-2; format: cell-based; details: 72 h
# Method: as §3
# [15] = tested on: HL60 (acute myeloid leukemia); assay: Cell viability MTT assay, HL60; format: cell-based
# Method: as §2
# [16] = ratio of IC50, tumoral versus non tumoral cells of same tissue
molecule,measurement,setting,value
C[C@@H]1CC[C@H]2[C@@H](C)C(=O)O[C@@H]3O[C@@]4(C)CC[C@@H]1[C@]32OO4 [artemisinin],Effect on activity of Nrf2,[1],activate
C[C@@H]1CCC2[C@@H](C)[C@@H](OCCCCn3cc[n+](C)[c]3[Au-][c]3n(CCCCO[C@H]4O[C@@H]5O[C@]6(C)CCC7[C@H](C)CCC([C@H]4C)[C@]75OO6)cc[n+]3C)O[C@@H]3O[C@]4(C)CCC1[C@@]23OO4.[Cl-] (some centres unmarked) [Compound 2b],GI50,[2],110 nM
same,Selectivity index RWPE-1,[2],2.6
same,GI50,[3],700 nM
same,Selectivity index NIH3T3,[3],16.7
same,GI50,[4],42 nM
C[C@@H]1CCC2[C@@H](C)[C@@H](OCCCn3cc[n+](C)[c]3[Au-][c]3n(CCCO[C@H]4O[C@@H]5O[C@]6(C)CCC7[C@H](C)CCC([C@H]4C)[C@]75OO6)cc[n+]3C)O[C@@H]3O[C@]4(C)CCC1[C@@]23OO4.O=[N+]([O-])[O-] (some centres unmarked) [Compound 2a],GI50,"[5]; 72 h, MTT assay, read-out: GI50 U2OS",120 nM
same,IC50,"[5]; Table 3, tumor cell model, read-out: IC50 U2OS (bone tumor)",122 nM
same,GI50,"[6]; 72 h, MTT assay",110 nM
same,IC50,"[6]; Table 3, tumor cell model",115 nM
same,GI50,[2],480 nM
same,Selectivity index RWPE-1,[2],6.9
same,IC50,"[2]; Table 3, non tumoral cell model, read-out: IC50 RWPE1 (prostatic epithelial cells)",480 nM
same,Specificity Prostate: RWPE1 (normal immortalized)/PC-3 (tumoral),[2]; [16],6.9
same,"SI PC-3/RPWE-1 value, times higher than Auranofin",[2]; ratio of SI,69 times
same,"SI PC-3/RPWE-1 value, times higher than complex 3",[2]; ratio of SI,35 times
same,GI50,"[7]; 72 h, MTT assay",170 nM
same,IC50,"[7]; Table 3, tumor cell model",175 nM
same,IC50,[8],~615 nM
same,GI50,"[9]; 72 h, MTT assay",1620 nM
same,Selectivity index MC3T3,[9]; SI = GI50 (MC3T3)/GI50 (PC-3),23.1
same,IC50,"[9]; Table 3, non tumoral cell model, read-out: IC50 MC3-T3 (osteoblasts)",1620 nM
same,Specificity Bone: MC3-T3 (normal immortalized)/U2OS (tumoral),[9]; [16],13.3
same,GI50,[3],1130 nM
same,Selectivity index NIH3T3,[3],16.1
same,IC50,"[3]; Table 3, non tumoral cell model, read-out: IC50 NIH3T3 (fibroblasts)",1130 nM
same,GI50,"[10]; 72 h, MTT assay",80 nM
same,IC50,"[10]; Table 3, tumor cell model",79 nM
same,IC50,[11],1080 nM
same,IC50,[12],96 nM
same,GI50,"[13]; 72 h, MTT assay",90 nM
same,IC50,"[13]; Table 3, tumor cell model",89 nM
same,GI50,[4],70 nM
same,IC50,"[4]; Table 3, tumor cell model",70 nM
same,GI50,[14],2430 nM
same,GI50,"[15]; 72 h, MTT assay",22 nM
same,IC50,"[15]; Table 3, tumor cell model",22 nM
CN1C=CN(c2ccc3ccccc3n2)[CH]1[Au-][CH]1N(C)C=CN1c1ccc2ccccc2n1 (centres unmarked) [Compound 3],Effect on activity of Nrf2,[1],activate
3′-methyl-1′-[10β-(22-pentoxy)dihydroartemisin]1H-imidazol-3-ium bromide [Compound 1c],GI50,[2],3740 nM
same,GI50,[3],> 20000 nM
same,GI50,[4],> 20000 nM
3′-methyl-1′-[10β-(21-butoxy)dihydroartemisin]1H-imidazol-3-ium bromide [Compound 1b],GI50,[2],> 20000 nM
same,GI50,[3],> 20000 nM
same,GI50,[4],> 20000 nM
3′-methyl-1′-[10β-(20-propoxy)dihydroartemisin]1H-imidazol-3-ium bromide [Compound 1a],GI50,[2],> 20000 nM
same,GI50,[3],> 20000 nM
same,GI50,[4],> 20000 nM
